Test results: ChEMBL document CHEMBL3862018, “Structure-activity of antifungal compounds inspired by aminobisabolenes from the sponge Halichondria sp” (2016)
≈ marks a conversion by molar mass, not a printed value.

Legend:
[1] = Antifungal activity against Trichophyton rubrum MRL666 after 72 hrs by CLSI M38-A method; assay type: functional
[2] = Antifungal activity against Candida glabrata after 24 hrs by microbroth dilution method; assay type: functional; settings: Nakaseomyces glabratus
Candida albicans = assay: Antifungal activity against Candida albicans ATCC 14503 after 24 hrs by microbroth dilution method; assay type: functional; settings: ATCC 14503, 24 h
[3] = Antifungal activity against Candida krusei after 24 hrs by microbroth dilution method; assay type: functional; settings: Pichia kudriavzevii
[4] = system: Cryptococcus gattii species complex; assay: Antifungal activity against Cryptococcus gattii after 24 hrs by microbroth dilution method; assay type: functional, Cryptococcus bacillisporus

MIC90 [1] [µM] | MIC90 [2] [µM] | MIC90 (Candida albicans) [µM] | MIC90 [3] [µM] | MIC90 [4] [µM] | SMILES
17 (≈ 3.76 µg/mL) | 38 (≈ 8.41 µg/mL) | 72 (≈ 15.9 µg/mL) | 36 (≈ 7.97 µg/mL) | 53 (≈ 11.7 µg/mL) | CC(C)=CCC[C@](C)(N)[C@H]1CC=C(C)CC1
 | 0.2 (≈ 0.185 µg/mL) | 0.3 (≈ 0.277 µg/mL) | 0.5 (≈ 0.462 µg/mL) | 0.1 (≈ 0.0924 µg/mL) | C[C@@H]1[C@H](O)[C@@H](C)/C=C/C=C/C=C/C=C/C=C/C=C/C=C/[C@H](O[C@@H]2O[C@H](C)[C@@H](O)[C@H](N)[C@@H]2O)C[C@@H]2O[C@](O)(C[C@@H](O)C[C@@H](O)[C@H](O)CC[C@@H](O)C[C@@H](O)CC(=O)O[C@H]1C)C[C@H](O)[C@H]2C(=O)O [AMPHOTERICIN B]
 | 18 (≈ 4.06 µg/mL) | 50 (≈ 11.3 µg/mL) | 14 (≈ 3.16 µg/mL) | 18 (≈ 4.06 µg/mL) | CC(C)CCC[C@](C)(N)C1CCC(C)CC1 (some centres not stated)
> 250 |  | > 250 |  | > 250 | CC(C)=CCC[C@@](C)([C@H]1CC=C(C)CC1)N(C)Cc1cccc2ccccc12
 | 139 (≈ 35.2 µg/mL) | 142 (≈ 36 µg/mL) | 58 (≈ 14.7 µg/mL) | 31 (≈ 7.86 µg/mL) | CC(C)CCC[C@@](C)(C1CCC(C)CC1)N(C)C (some centres not stated)
 | > 250 | > 250 | > 250 | 5.3 (≈ 1.54 µg/mL) | CN(C/C=C/C#CC(C)(C)C)Cc1cccc2ccccc12 [TERBINAFINE]
70 (≈ 25.3 µg/mL) |  | > 250 |  | > 250 | CC(C)=CCC[C@](C)(NCc1cccc2ccccc12)[C@H]1CC=C(C)CC1
